Where a SMILES comes first, the peptide text is derived from it. Bridges are numbered along the chain shown (N, C = ends). [ ]: non-standard residue; d: D form.
System: mouse MC4R-EGFP
Test: kinetic BRET β-arrestin-2 recruitment assay (MC4R-EGFP / β-arrestin-2-nanoluciferase)
Type: cell-based
Conditions: ligand 10 μM; HEK293 cells, MC4R-EGFP and β-arrestin-2-NLuc; mean ligand-induced BRET from 312 to 2433 s, NDP-α-MSH set as 100; three independent experiments
Description: Considering the physiological relevance of β-arrestins and their critical role in orchestrating MC4R signaling, we measured β-arrestin-2 recruitment in a kinetic bioluminescence resonance energy transfer (BRET) assay. We screened at a ligand concentration of 10 μM in HEK293 cells transiently expressing MC4R coupled to EGFP, and β-arrestin-2 fused to nanoluciferase. […] By contrast, Pr4LP1, Ar3LP1, Ar3LP2, and GoLP1 recruited β-arrestin-2 with greater efficiencies (>130%) than NDP-α-MSH (Figures 4 and S5B,C).
Figure 4 β-Arrestin-2 recruitment of designed MC4R peptide analogues. BRET assay was used to measure the transient interaction of MC4R-EGFP with β-arrestin-2-nanoluciferase (NLuc) in HEK293 cells over time following cell treatment with 10 μM of tachyplesin-1-like peptides (Ta1LPs, green), protegrin-4-like peptides (Pr4LPs, pink), arenicin-3-like peptides (Ar3LPs, orange), and gomesin-like peptides (GoLPs, blue). Relative BRET quantification was determined by calculating the mean value of ligand-induced BRET for each peptide ligand from 312 to 2433 s which was then divided by the mean value of ligand-induced BRET of NDP-α-MSH set as 100. Data are shown as mean ± SEM from three independent experiments.
BRET assay was performed as previously described.[32] Briefly, β-arrestin-2-nano luciferase and mouse MC4R-EGFP were cotransfected in a 1:10 ratio. 16 h post-transfection, 50,000 cells in 100 μL of phenol red-free DMEM with 10% FBS per well were transferred into white clear bottom 96-well plates and incubated overnight. On the day of the assay, cells were incubated for 1 h at 37 °C in phenol red- and serum-free DMEM. Furimazine (diluted 1:50) and peptide ligands (4×) were prepared in Hank’s balanced salt solution (HBSS), respectively. Prior to establishing the baseline and measuring kinetic BRET, furimazine was incubated for 5 min at 37 °C. The ability of peptide ligands to induce β-arrestin-2 recruitment was assessed by measuring light emissions for EGFP (510 nm) and nanoluciferase (460 nm) over 35 min using Flexstation 3 (Molecular Devices, San Jose, USA). The BRET ratio was calculated as emission EGFP (510 nm)/emission nanoluciferase (460 nm). The ligand-induced BRET was calculated by subtracting […].

Compound | BRET efficacy of β-arrestin-2 recruitment relative to NDP-α-MSH [%]
CC(C)C[C@H](NC(=O)[C@H](CCCNC(=N)N)NC(=O)CNC(=O)CNC(=O)[C@@H](N)CCCNC(=N)N)C(=O)N[C@H]1CSSC[C@@H](C(=O)N[C@H](C(=O)NCC(=O)N[C@@H](CCCNC(=N)N)C(N)=O)C(C)C)NC(=O)[C@H](Cc2ccccc2)NC(=O)[C@@H]2CSSC[C@H](NC(=O)[C@H](Cc3ccc(O)cc3)NC1=O)C(=O)N1CCC[C@H]1C(=O)N[C@@H](Cc1c[nH]cn1)C(=O)N[C@H](Cc1ccccc1)C(=O)N[C@@H](Cc1c[nH]cn1)C(=O)N[C@@H](Cc1c[nH]c3ccccc13)C(=O)N2 [Pr4LP1] (H-RGGRLCYCPH[dF]HWCFCVGR-NH2; disulfide 6-16, 8-14) | > 130
CC(C)[C@@H]1NC(=O)[C@H](Cc2ccc(O)cc2)NC(=O)[C@H](Cc2c[nH]c3ccccc23)NC(=O)[C@@H](NC(=O)[C@H](Cc2ccccc2)NC(=O)CN)CSSC[C@@H](C(=O)N[C@@H](CC(N)=O)C(N)=O)NC(=O)[C@H](CCCNC(=N)N)NC(=O)[C@H](CCCNC(=N)N)NC(=O)[C@H](Cc2ccc(O)cc2)NC(=O)[C@@H]2CSSC[C@H](NC1=O)C(=O)N1CCC[C@H]1C(=O)N[C@@H](Cc1c[nH]cn1)C(=O)N[C@H](Cc1ccccc1)C(=O)N[C@@H](Cc1c[nH]cn1)C(=O)N[C@@H](Cc1c[nH]c3ccccc13)C(=O)N2 [Ar3LP1] (H-GFCWYVCPH[dF]HWCYRRCN-NH2; disulfide 3-17, 7-13) | > 130

Reference: PMC10580383, “Development of Melanocortin 4 Receptor Agonists by Exploiting Animal-Derived Macrocyclic, Disulfide-Rich Peptide Scaffolds” (ACS Pharmacology & Translational Science, 2023)
